Here are results for 7 compounds from ChEMBL document CHEMBL1201862, “PubChem BioAssay data set” (2004).

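These data come from cells grown in 96-well plates and exposed to compound for 48 hours at five concentrations. GI50 = concentration required for 50% inhibition of growth.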 Calls of active or inactive are those of the source. No stated cut-off is given here; in the data, active = GI50 up to about 1.1 µM and inactive = higher. Where a SMILES comes first, the peptide text is derived from it. [ ]: non-standard residue; d: D form. The star is where a group is joined. ξ: configuration not given here. ξPhe(4-NO2) = NC(Cc1ccc([N+](=O)[O-])cc1)C(=O)O; Boc = CC(C)(C)OC(=O)*; OBn = c1ccc(CO*)cc1

Test systems include MOLT-4; SNB-19; A498; NCI-H226; SK-MEL-5; MDA-MB-435; UO-31; MDA-N; U-251; UACC-257; OVCAR-4; COLO 205; T47D; TK-10; SNB-75; 786-0; SK-MEL-28; DU-145; LOX IMVI; HT-29.
Holding throughout (assay): NCI-60 cell line screen, 48 h

Turning to `O=C1Nc2ccccc2/C1=C/c1c(Cl)[nH]c2ccc(O)cc12`, the GI50 in the assay with MOLT-4 was 1 µM (active); with SNB-19, 3.21 µM (inactive); in the assay with A498, 2.31 µM (inactive); in the assay on NCI-H226, 1.08 µM (active); in the assay with SK-MEL-5, 1.21 µM (inactive); in the assay on MDA-MB-435, 0.214 µM (active). Besides, the GI50 is 3.9 µM (inactive) in the assay on UO-31; 0.194 µM (active) in the assay on MDA-N; 1.33 µM (inactive) in the assay with U-251; 10.6 µM (inactive) with UACC-257; 3.94 µM (inactive) in the assay with OVCAR-4; 2.07 µM (inactive) in the assay with COLO 205. For the same compound, the GI50 in the assay on T47D is 3.02 µM (inactive); in the assay with TK-10, 10.7 µM (inactive); in the assay with SNB-75, 1.95 µM (inactive); in the assay on 786-0 it was 3.27 µM (inactive); with SK-MEL-28, 7.05 µM (inactive); in the assay on DU-145, 1.78 µM (inactive). For the same compound, the figures for the GI50 with LOX IMVI and with HT-29 were 2.75 µM (inactive) and 3.16 µM (inactive), respectively.
As for `CC(C)Cc1ccc(C(C)/C=C2\CCC(CN3CCCCC3)C2=O)cc1` (stereo not drawn), the GI50 in the assay with MOLT-4 is 1.63 µM (inactive); in the assay with SNB-19, 12 µM (inactive); with A498, 14.3 µM (inactive); in the assay on NCI-H226 it was 14.7 µM (inactive); with SK-MEL-5, 13.5 µM (inactive); in the assay on MDA-MB-435, 13.6 µM (inactive). The GI50 was 10.6 µM (inactive) in the assay with UO-31; 3.7 µM (inactive) with MDA-N; 2.14 µM (inactive) with U-251; 12.7 µM (inactive) in the assay with UACC-257; 3.78 µM (inactive) with OVCAR-4; 5.81 µM (inactive) in the assay on COLO 205. Also, the GI50 with T47D was 5.09 µM (inactive); with TK-10 it was 3.27 µM (inactive); in the assay with SNB-75, 15.6 µM (inactive); in the assay on 786-0, 1.85 µM (inactive); with SK-MEL-28, 3.21 µM (inactive); in the assay with DU-145 it was 16.2 µM (inactive). For the same compound, the values for the GI50 in the assay on LOX IMVI and in the assay with HT-29 were 2.01 µM (inactive) and 5.12 µM (inactive), respectively.
On to `C=C(C(=O)O[C@H]1C/C(C)=C/CC/C(CO)=C/[C@H]2C(=O)OC(=C)[C@H]12)C(O)CO` (stereo partly drawn), for which the GI50 was 5.37 µM (inactive) in the assay on MOLT-4; 21.4 µM (inactive) in the assay with SNB-19; 18.5 µM (inactive) with A498; 17.9 µM (inactive) in the assay with NCI-H226; 15.5 µM (inactive) with SK-MEL-5; 9.59 µM (inactive) in the assay on MDA-MB-435. Besides, the GI50 is 8.18 µM (inactive) with UO-31; 11.7 µM (inactive) in the assay on MDA-N; 12.1 µM (inactive) in the assay on U-251; 11.5 µM (inactive) in the assay with UACC-257; 20.5 µM (inactive) in the assay with OVCAR-4; 3.37 µM (inactive) in the assay on COLO 205. Besides, the GI50 in the assay on T47D was 3.75 µM (inactive); in the assay with TK-10 it was 7.93 µM (inactive); in the assay on SNB-75, 18.7 µM (inactive); with 786-0, 5.98 µM (inactive); with SK-MEL-28, 14.5 µM (inactive); with DU-145, 17.3 µM (inactive). For the same compound, the GI50 in the assay with LOX IMVI was 16.3 µM (inactive); in the assay with HT-29, 17.9 µM (inactive).
Take `FC(F)(F)c1nc2ccc(SSc3ccc4nc(C(F)(F)F)[nH]c4c3)cc2[nH]1`: the GI50 was 27.3 µM (inactive) in the assay on MOLT-4; > 10 µM (inactive) in the assay with SNB-19; > 10 µM (inactive) in the assay on A498; > 10 µM (inactive) in the assay on NCI-H226; 45.9 µM (inactive) in the assay with SK-MEL-5; 40.6 µM (inactive) in the assay with MDA-MB-435. Besides, the GI50 in the assay on UO-31 was 31.6 µM (inactive); in the assay with MDA-N it was 80.5 µM (inactive); in the assay on U-251, 84.1 µM (inactive); in the assay on UACC-257, 35.9 µM (inactive); in the assay with OVCAR-4, 61.5 µM (inactive); with COLO 205, 33.9 µM (inactive). Moreover, the GI50 in the assay with T47D is 38.8 µM (inactive); with TK-10, 79.3 µM (inactive); in the assay with SNB-75 it was > 10 µM (inactive); in the assay on 786-0 it was 50.5 µM (inactive); in the assay with SK-MEL-28 it was > 10 µM (inactive); in the assay with DU-145, > 10 µM (inactive). Besides, the GI50 in the assay on LOX IMVI is 40.5 µM (inactive); in the assay on HT-29, > 10 µM (inactive).
For `COc1ccc(N2C(=O)C3c4[nH]c5ccc(F)cc5c4C4CCC(c5ccccc5)CC4C3C2=O)cc1` (stereo not drawn), the GI50 in the assay with MOLT-4 is 8.18 µM (inactive); with SNB-19 it was 11.1 µM (inactive); in the assay on A498, 15.7 µM (inactive); with NCI-H226, 54.8 µM (inactive); with SK-MEL-5, 21.6 µM (inactive); with MDA-MB-435, 16.6 µM (inactive). Besides, the GI50 is 21.4 µM (inactive) in the assay on UO-31; 27.4 µM (inactive) in the assay on MDA-N; 9.98 µM (inactive) with U-251; 26.7 µM (inactive) with UACC-257; 12.7 µM (inactive) in the assay on OVCAR-4; 31.1 µM (inactive) in the assay on COLO 205. Further, the GI50 is 39.3 µM (inactive) in the assay with T47D; 21.9 µM (inactive) in the assay with TK-10; 12.5 µM (inactive) in the assay with SNB-75; 3.56 µM (inactive) in the assay on 786-0; 13.5 µM (inactive) in the assay with SK-MEL-28; 66.2 µM (inactive) in the assay on DU-145. Further, the GI50 is 36.8 µM (inactive) with LOX IMVI and 16 µM (inactive) in the assay with HT-29.
On to `CC(=O)C1(c2ccccc2)CCN(Cn2sc3nc(C)cc(C)c3c2=O)CC1`, for which the GI50 is 27.7 µM (inactive) in the assay on MOLT-4; > 100 µM (inactive) in the assay on SNB-19; 78.2 µM (inactive) in the assay on A498; 97.5 µM (inactive) in the assay on NCI-H226; 30.1 µM (inactive) with SK-MEL-5; 23.1 µM (inactive) with MDA-MB-435. Besides, the GI50 is 16.5 µM (inactive) in the assay with UO-31; 19.8 µM (inactive) in the assay on MDA-N; 42.3 µM (inactive) in the assay on U-251; 21.9 µM (inactive) with OVCAR-4; 17.6 µM (inactive) in the assay with COLO 205; 55.6 µM (inactive) with T47D. Further, the GI50 was 20.1 µM (inactive) in the assay on TK-10; 28.3 µM (inactive) with SNB-75; 16.9 µM (inactive) in the assay with 786-0; 31.6 µM (inactive) in the assay on SK-MEL-28; 31.4 µM (inactive) in the assay on DU-145; 23.8 µM (inactive) with LOX IMVI. The GI50 in the assay with HT-29 was 19.1 µM (inactive).
`CC(C)(C)OC(=O)NC(Cc1ccc([N+](=O)[O-])cc1)C(=O)NCC(=O)OCc1ccccc1` (stereo not drawn) (Boc-[ξPhe(4-NO2)]-Gly-OBn): the GI50 was 15 µM (inactive) with MOLT-4; 55.3 µM (inactive) in the assay on SNB-19; 38.6 µM (inactive) in the assay with A498; 26.7 µM (inactive) with NCI-H226; 19.4 µM (inactive) in the assay on SK-MEL-5; 16.9 µM (inactive) with MDA-MB-435. In addition, the GI50 was 23.9 µM (inactive) in the assay on UO-31; 19.1 µM (inactive) with MDA-N; 20.7 µM (inactive) in the assay on U-251; 25.9 µM (inactive) in the assay with OVCAR-4; 17.1 µM (inactive) in the assay on COLO 205; 44.1 µM (inactive) with T47D. Further, the GI50 with TK-10 was > 100 µM (inactive); in the assay on SNB-75, 18.4 µM (inactive); with 786-0, 11.4 µM (inactive); in the assay with SK-MEL-28, 24 µM (inactive); in the assay on DU-145 it was 30.1 µM (inactive); with LOX IMVI, 14.1 µM (inactive). Also, the GI50 in the assay on HT-29 is 25.5 µM (inactive).
